From PubChem BioAssay (NCI)
“And” between values parts separate entries of the source, which are not always exact repeats. Identical values can stand only once.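 Cultured in 96-well plates, cells were exposed to test compound for 48 hours across five concentrations. Here, GI50 denotes the concentration required for 50% inhibition of growth. Definition used: TGI = concentration required for complete inhibition of growth.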

Tests used:
Assay in all cases: DTP human tumour cell line panel, 48 h
HS 578T breast = tested on: HS 578T breast
NCI-H522 lung = tested on: NCI-H522 lung
U251 CNS = tested on: U251 CNS
OVCAR-8 ovarian = tested on: OVCAR-8 ovarian
T-47D breast = tested on: T-47D breast
A549 NSCLC = tested on: A549 NSCLC
HT29 colon = tested on: HT29 colon
MDA-MB-435 = tested on: MDA-MB-435
DU-145 prostate = tested on: DU-145 prostate
COLO 205 colon = tested on: COLO 205 colon

| SMILES | GI50 (HS 578T breast) | TGI (HS 578T breast) | GI50 (NCI-H522 lung) | TGI (NCI-H522 lung) | GI50 (U251 CNS) | TGI (U251 CNS) | GI50 (OVCAR-8 ovarian) | TGI (OVCAR-8 ovarian) | GI50 (T-47D breast) | TGI (T-47D breast) | GI50 (A549 NSCLC) | TGI (A549 NSCLC) | GI50 (HT29 colon) | TGI (HT29 colon) | GI50 (MDA-MB-435) | TGI (MDA-MB-435) | GI50 (DU-145 prostate) | TGI (DU-145 prostate) | GI50 (COLO 205 colon) | TGI (COLO 205 colon) |
| --- | --- | --- | --- | --- | --- | --- | --- | --- | --- | --- | --- | --- | --- | --- | --- | --- | --- | --- | --- | --- |
| Oc1c(CCl)cc(Cl)cc1Cc1cc(Cl)cc(Cc2cc(Cl)cc(CCl)c2O)c1O | 3.02 µM | 22.6 µM | 2.73 µM | 10.2 µM | 2.83 µM | 21.1 µM | 3.62 µM | 30.7 µM | 2.21 µM | 9.39 µM | 4.67 µM | 29.3 µM | 5.37 µM | 17.6 µM | 3.89 µM | 21.4 µM | 4.28 µM | 37.1 µM | 7.14 µM | 26.7 µM |
| Nc1ncnc2occ(-c3ccc(NC(=O)Nc4cc(C(F)(F)F)ccc4F)cc3)c12 | 0.773 µM and 2.09 µM | 9.1 µM and 9.04 µM | 5.48 µM and 1.91 µM | 11.2 µM and 5.81 µM | 7.26 µM and 4.26 µM | 22.8 µM and 11.2 µM | 4.76 µM and 1.95 µM | 16.6 µM and 5.76 µM | 6.42 µM and 3.5 µM | 16.9 µM and 10.9 µM | 6.44 µM and 3.16 µM | 18.8 µM and 11.5 µM | 4.42 µM and 2.64 µM | 11.6 µM and 7.03 µM | 4.35 µM and 2.37 µM | 11.3 µM and 5.59 µM | 7.01 µM and 2.68 µM | 21.1 µM and 9.28 µM | 5.27 µM and 3.74 µM | 9.88 µM and 7.13 µM |
| CN(CCNc1ccc(C(=N)N)cc1)c1ccc(C(=N)N)cc1 | 16.1 µM | 51.9 µM | 27.5 µM | > 100 µM | 30.6 µM | > 100 µM | 50 µM | > 100 µM | 23.9 µM | > 100 µM | 0.249 µM | > 100 µM | 80.8 µM | > 100 µM | 66.3 µM | > 100 µM | 19.2 µM | > 100 µM | 17 µM | 41.1 µM |
| CN1CCN(C(=O)OCc2nc3c(N4CCOCC4)nc(-c4ccccc4)nc3n2C)CC1 | 1.23 µM | 3.93 µM | 0.596 µM | 2.4 µM | 1.52 µM | 3.17 µM | 1.17 µM | 3.04 µM | 1.53 µM | 4.51 µM | 1.68 µM | 4.13 µM | 0.512 µM | 2.24 µM | 1.06 µM | 2.39 µM | 1.19 µM | 2.48 µM | 1.36 µM | 3.75 µM |
| CC(=O)N[C@@H](Cc1ccc(OP(=O)(O)O)cc1)C(=O)N[C@H]1CCC(=O)N2CCC[C@@H](C(=O)NCc3cccc4ccccc34)N2C1=O | > 25 µM | > 25 µM | > 25 µM | > 25 µM | > 25 µM | > 25 µM | > 25 µM | > 25 µM | > 25 µM | > 25 µM | > 25 µM | > 25 µM | > 25 µM | > 25 µM | > 25 µM | > 25 µM | > 25 µM | > 25 µM | > 25 µM | > 25 µM |
| CC(C)c1ccc2c(c1)CCC1C(C)(CN)CCCC21C (configuration not stated) |  | 3.57 µM |  | 3.36 µM |  | 2.83 µM |  | 3.4 µM |  | 3.3 µM |  | 3.37 µM |  | 2.39 µM |  | 2.89 µM |  | 3.33 µM |  | 1.43 µM |
| Cc1cc(C)c2c(=O)cc(-c3ccc(F)cc3)[nH]c2n1 |  | > 100 µM |  | > 100 µM | 95.1 µM | > 100 µM |  | > 100 µM |  | > 100 µM |  | > 100 µM |  | > 100 µM | 18.6 µM | 40.6 µM |  | > 100 µM |  | > 100 µM |
| CSc1nc(SC)c2cnn(-c3ccnc4cc(Cl)ccc34)c2n1 | 23.3 µM | > 100 µM | 55.1 µM | > 100 µM | 45.4 µM | > 100 µM | > 56.5 µM | > 100 µM | > 100 µM | > 100 µM | > 85.7 µM | > 100 µM | > 100 µM | > 100 µM | 10.7 µM | > 100 µM | 42.6 µM | > 67 µM | > 100 µM | > 100 µM |
| Clc1ccc(Nc2ncnc3ccccc23)cc1 | 37.9 µM | > 100 µM | 15.5 µM | 55.8 µM | 72.5 µM | > 100 µM | 59.2 µM | > 100 µM | 80 µM | > 100 µM | 47.6 µM | > 100 µM | 55.3 µM | > 100 µM | 42.2 µM | > 100 µM | 26.4 µM | > 100 µM | 68.9 µM | > 100 µM |
| O=C(/C=C/c1cccnc1)c1ccccc1 | 10.5 µM | 32.7 µM | 1.67 µM | 4.65 µM | 3.85 µM | 15.1 µM | 12.2 µM | 25.9 µM | 12.4 µM | 28.6 µM | 17.2 µM | 34.2 µM | 2.31 µM | 5.92 µM | 12.4 µM | 26.7 µM | 13.9 µM | 26.9 µM | 13.9 µM | 28.8 µM |
| COc1ccc(/C=C/C(=O)c2ccc(B(O)O)cc2)cc1O | 12.6 µM | > 100 µM | 17.8 µM | 45.1 µM | 9.37 µM | 27 µM | 28.3 µM | > 77.9 µM | 13.5 µM | 50.9 µM | 14.5 µM | > 76.7 µM | 8.22 µM | > 60.4 µM | 2.11 µM | 5.5 µM | 6.21 µM | 28.9 µM | 16.2 µM | 32 µM |
| Fc1ccc(-c2nn3c(COc4ccccc4Cl)nnc3s2)cc1Oc1ccccc1 | 47.6 µM | > 100 µM | 29.6 µM | > 100 µM | 18.4 µM | 41.2 µM | 49.9 µM | > 100 µM | 34.5 µM | > 100 µM | 40.2 µM | > 100 µM | 44.9 µM | > 100 µM | 33.2 µM | > 100 µM | 39 µM | > 100 µM | 46.4 µM | > 100 µM |
| O=P1(O)c2ccccc2CSCc2ccccc21 |  | > 100 µM |  | > 100 µM |  | > 100 µM |  | > 100 µM |  | > 100 µM |  | > 100 µM |  | > 100 µM |  | > 100 µM |  | > 100 µM |  | > 100 µM |
